Data reported in patent publication US6992079B2, “Substituted 11-phenyl-dibenzazepine compounds useful for the treatment or prevention of diseases characterized by abnormal cell proliferation” (President Fellows of Harvard College, priority 1997, dated 2006).
Where two headings read alike, the source gives them in different places.

Tests used:
[1] = system: panel of human cancer cells; assay: In vitro screening, SRB, panel of 60 human cancer cell lines; assay type: cell-based
MDA-MB-23 = assay: SRB antiproliferative assay; assay type: cell-based; conditions: Homo sapiens, MDA-MB-23
Source text: (§1) The cells were passaged using Trypsin (Gibco).

MMRU = assay: SRB antiproliferative assay; assay type: cell-based; conditions: Homo sapiens
Source text: as §1

[2] = system: squamous cell carcinoma (KLN-205) cells; assay: Tumor growth in murine squamous cell carcinoma model; assay type: in vivo, mouse
MC-F7 = assay: In-Vitro Testing SRB panel: Breast Cancer; assay type: cell-based
SK-MEL-5 = assay: In-Vitro Testing SRB panel: Melanoma; assay type: cell-based; conditions: SK-MEL-5, 48 h
SF-295 = assay: In-Vitro Testing SRB panel: CNS Cancer; assay type: cell-based; conditions: SF-295, 48 h
A549/ATCC = assay type: cell-based
MDA-N = assay: In-Vitro Testing SRB panel: Breast Cancer; assay type: cell-based; conditions: 48 h
[3] = system: NIH 3T3 mouse fibroblast cells; assay: Mitogenic assay (mitogen-induced cell proliferation); assay type: cell-based
NCI-H522 = assay type: cell-based; conditions: NCI-H522, 48 h
OVCAR-5 = assay: In-Vitro Testing SRB panel: Ovarian Cancer; assay type: cell-based; conditions: OVCAR-5, 48 h
SK-MEL-2 = assay: In-Vitro Testing SRB panel: Melanoma; assay type: cell-based; conditions: SK-MEL-2, 48 h
HCT-15 = assay: In-Vitro Testing SRB panel: Colon Cancer; assay type: cell-based; conditions: HCT-15, 48 h
NCI-H460 = assay type: cell-based; conditions: NCI-H460, 48 h
SNB-75 = assay: In-Vitro Testing SRB panel: CNS Cancer; assay type: cell-based; conditions: SNB-75, 48 h
OVCAR-4 = assay: In-Vitro Testing SRB panel: Ovarian Cancer; assay type: cell-based; conditions: OVCAR-4, 48 h
PC-3 = assay: In-Vitro Testing SRB panel: Prostate Cancer; assay type: cell-based; conditions: PC-3, 48 h
DU-145 = assay: In-Vitro Testing SRB panel: Prostate Cancer; assay type: cell-based; conditions: DU-145, 48 h
A498 = assay: In-Vitro Testing SRB panel: Renal Cancer; assay type: cell-based; conditions: A498, 48 h
[4] = Homo sapiens, read-out: LC50 (the source's name)

O=C(c1ccc([N+](=O)[O-])cc1)N1Cc2ccccc2C(c2ccccc2Cl)c2ccccc21 (centres unmarked) [Compound 28, N-(4′-Nitrobenzoyl)-11-(2′-chlorophenyl)-5,6-dihydro-11H-dibenz[b,e]azepine]
activity against the human cell panel [1]: exhibited activity against the human cell panel | IC50 (MDA-MB-23): 0.5 µM | IC50 (MMRU; MMRU (Melanoma), 5% FCS/5 day incubation): 0.2 µM | IC50 (MMRU; MMRU, 5% FCS/3 days): < 1.25 µM | cyclin D1 and PCNA expression in vivo ([2]; KLN induced tumors): abrogated cyclin D1 and PCNA expression | tumor growth ([2]; KLN-205, subcutaneous injection or oral administration of 80 mg/kg/day for 30 days): significantly inhibited tumor growth | GI50 (MC-F7; Homo sapiens, MCF7, 48 h): 0.872 µM | CC50 (MC-F7; Homo sapiens, MCF7, MC-F7, 48 h, read-out: LC50 (the source's name)): > 100 µM | TGI (MC-F7; MC-F7, 48 h): >1.00E−04 Molar | Percent Growth (MC-F7; MC-F7, log10 conc −4.0 Molar, 48 h): 8% | Percent Growth (MC-F7; MC-F7, log10 conc −5.0 Molar, 48 h): 21% | Percent Growth (MC-F7; MC-F7, log10 conc −6.0 Molar, 48 h): 48% | Percent Growth (MC-F7; MC-F7, log10 conc −7.0 Molar, 48 h): 88% | Percent Growth (MC-F7; MC-F7, log10 conc −8.0 Molar, 48 h): 97% | GI50 (SK-MEL-5; Homo sapiens): 0.529 µM | CC50 (SK-MEL-5; [4]): > 100 µM | TGI (SK-MEL-5): 1.74E−05 Molar | Percent Growth (SK-MEL-5; log10 conc −4.0 Molar): −25% | Percent Growth (SK-MEL-5; log10 conc −5.0 Molar): 8% | Percent Growth (SK-MEL-5; log10 conc −6.0 Molar): 40% | Percent Growth (SK-MEL-5; log10 conc −7.0 Molar): 76% | Percent Growth (SK-MEL-5; log10 conc −8.0 Molar): 84% | GI50 (SF-295; Homo sapiens): 0.442 µM | CC50 (SF-295; [4]): > 100 µM | TGI (SF-295): >1.00E−04 Molar | Percent Growth (SF-295; log10 conc −4.0 Molar): 10% | Percent Growth (SF-295; log10 conc −5.0 Molar): 20% | Percent Growth (SF-295; log10 conc −6.0 Molar): 36% | Percent Growth (SF-295; log10 conc −7.0 Molar): 75% | Percent Growth (SF-295; log10 conc −8.0 Molar): 88% | TGI (A549/ATCC; A549/ATCC, 48 h): >1.00E−04 Molar | Percent Growth (A549/ATCC; A549/ATCC, log10 conc −4.0 Molar, 48 h): 14% | Percent Growth (A549/ATCC; A549/ATCC, log10 conc −5.0 Molar, 48 h): 20% | Percent Growth (A549/ATCC; A549/ATCC, log10 conc −6.0 Molar, 48 h): 49% | Percent Growth (A549/ATCC; A549/ATCC, log10 conc −7.0 Molar, 48 h): 92% | Percent Growth (A549/ATCC; A549/ATCC, log10 conc −8.0 Molar, 48 h): 97% | GI50 (A549/ATCC; Homo sapiens, A549, 48 h): 0.937 µM | CC50 (A549/ATCC; Homo sapiens, A549/ATCC, 48 h, read-out: LC50 (the source's name)): > 100 µM | TGI (MDA-N): >1.00E−04 Molar | GI50 (MDA-N; Homo sapiens): 1.17 µM | CC50 (MDA-N; [4]): > 100 µM | Percent Growth (MDA-N; log10 conc −4.0 Molar): 7% | Percent Growth (MDA-N; log10 conc −5.0 Molar): 23% | Percent Growth (MDA-N; log10 conc −6.0 Molar): 52% | Percent Growth (MDA-N; log10 conc −7.0 Molar): 94% | Percent Growth (MDA-N; log10 conc −8.0 Molar): 99% | IC50 ([3]; NIH3T3): 0.04 to 0.5 µM | inhibition at 10 µM ([3]; NIH3T3, 10 μM compound): 99% | GI50 (NCI-H522; Homo sapiens): 0.337 µM | CC50 (NCI-H522; [4]): > 100 µM | TGI (NCI-H522): >2.72E−05 Molar | Percent Growth (NCI-H522; log10 conc −4.0 Molar): −16% | Percent Growth (NCI-H522; log10 conc −5.0 Molar): 12% | Percent Growth (NCI-H522; log10 conc −6.0 Molar): 13% | Percent Growth (NCI-H522; log10 conc −7.0 Molar): 91% | Percent Growth (NCI-H522; log10 conc −8.0 Molar): 99% | GI50 (OVCAR-5; Homo sapiens): > 100 µM | CC50 (OVCAR-5; [4]): > 100 µM | TGI (OVCAR-5): >1.00E−04 Molar | Percent Growth (OVCAR-5; log10 conc −4.0 Molar): 68% | Percent Growth (OVCAR-5; log10 conc −5.0 Molar): 75% | Percent Growth (OVCAR-5; log10 conc −6.0 Molar): 91% | Percent Growth (OVCAR-5; log10 conc −7.0 Molar): 96% | Percent Growth (OVCAR-5; log10 conc −8.0 Molar): 110% | GI50 (SK-MEL-2; Homo sapiens): 1.76 µM | CC50 (SK-MEL-2; [4]): > 100 µM | TGI (SK-MEL-2): 1.10E−05 Molar | Percent Growth (SK-MEL-2; log10 conc −4.0 Molar): −31% | Percent Growth (SK-MEL-2; log10 conc −5.0 Molar): 1% | Percent Growth (SK-MEL-2; log10 conc −6.0 Molar): 66% | Percent Growth (SK-MEL-2; log10 conc −7.0 Molar): 95% | Percent Growth (SK-MEL-2; log10 conc −8.0 Molar): 107% | TGI (HCT-15): >1.00E−04 Molar | Percent Growth (HCT-15; log10 conc −4.0 Molar): 29% | Percent Growth (HCT-15; log10 conc −5.0 Molar): 28% | Percent Growth (HCT-15; log10 conc −6.0 Molar): 40% | Percent Growth (HCT-15; log10 conc −7.0 Molar): 86% | Percent Growth (HCT-15; log10 conc −8.0 Molar): 99% | GI50 (HCT-15; Homo sapiens): 0.608 µM | CC50 (HCT-15; [4]): > 100 µM | GI50 (NCI-H460; Homo sapiens): 3.65 µM | CC50 (NCI-H460; [4]): > 100 µM | TGI (NCI-H460): >1.00E−04 Molar | Percent Growth (NCI-H460; log10 conc −4.0 Molar): 15% | Percent Growth (NCI-H460; log10 conc −5.0 Molar): 12% | Percent Growth (NCI-H460; log10 conc −6.0 Molar): 18% | Percent Growth (NCI-H460; log10 conc −7.0 Molar): 92% | Percent Growth (NCI-H460; log10 conc −8.0 Molar): 97% | GI50 (SNB-75; Homo sapiens): 5.25 µM | CC50 (SNB-75; [4]): > 100 µM | TGI (SNB-75): >1.00E−04 Molar | Percent Growth (SNB-75; log10 conc −4.0 Molar): 17% | Percent Growth (SNB-75; log10 conc −5.0 Molar): 26% | Percent Growth (SNB-75; log10 conc −6.0 Molar): 75% | Percent Growth (SNB-75; log10 conc −7.0 Molar): 111% | Percent Growth (SNB-75; log10 conc −8.0 Molar): 108% | GI50 (OVCAR-4; Homo sapiens): 0.974 µM | CC50 (OVCAR-4; [4]): > 100 µM | TGI (OVCAR-4): >1.00E−04 Molar | Percent Growth (OVCAR-4; log10 conc −4.0 Molar): 10% | Percent Growth (OVCAR-4; log10 conc −5.0 Molar): 16% | Percent Growth (OVCAR-4; log10 conc −6.0 Molar): 50% | Percent Growth (OVCAR-4; log10 conc −7.0 Molar): 80% | Percent Growth (OVCAR-4; log10 conc −8.0 Molar): 98% | GI50 (PC-3; Homo sapiens): 0.501 µM | CC50 (PC-3; [4]): > 100 µM | TGI (PC-3): 9.10E−06 Molar | Percent Growth (PC-3; log10 conc −4.0 Molar): −9% | Percent Growth (PC-3; log10 conc −5.0 Molar): −2% | Percent Growth (PC-3; log10 conc −6.0 Molar): 40% | Percent Growth (PC-3; log10 conc −7.0 Molar): 74% | Percent Growth (PC-3; log10 conc −8.0 Molar): 109% | TGI (DU-145): >1.00E−04 Molar | Percent Growth (DU-145; log10 conc −4.0 Molar): 27% | Percent Growth (DU-145; log10 conc −5.0 Molar): 30% | Percent Growth (DU-145; log10 conc −6.0 Molar): 54% | Percent Growth (DU-145; log10 conc −7.0 Molar): 98% | Percent Growth (DU-145; log10 conc −8.0 Molar): 100% | GI50 (DU-145; Homo sapiens): 1.52 µM | CC50 (DU-145; [4]): > 100 µM | TGI (A498): >1.00E−04 Molar | Percent Growth (A498; log10 conc −4.0 Molar): 15% | Percent Growth (A498; log10 conc −5.0 Molar): 57% | Percent Growth (A498; log10 conc −6.0 Molar): 81% | Percent Growth (A498; log10 conc −7.0 Molar): 93% | Percent Growth (A498; log10 conc −8.0 Molar): 97% | GI50 (A498; Homo sapiens): 14.4 µM | CC50 (A498; [4]): > 100 µM
